In article PMC9925730, “Controlled sequential in situ self-assembly and disassembly of a fluorogenic cisplatin prodrug for cancer theranostics” (Nature Communications, 2023):
Several values for one entry are separate records, joined by “and”; a condition that tells them apart may be missing. Identical values can stand only once.

Key:
ALP [1] = molecular target: T1, ALP (Bos taurus, UniProt P19111); test: Sensitivity of P-CyPt towards ALP (detection limit); format: biochemical; conditions: for Normalized FL intensity at 710 nm (individual replicates) / Normalized FL intensity at 710 nm, mean: Supplementary Fig. 6b
T1 construct: Alkaline phosphatase from bovine; purchased Sigma-Aldrich; host or cells: bovine intestinal mucosa (tissue-derived)

s.c. HeLa tumors = test: Fluorescence imaging of varying sizes of s.c. HeLa tumors; format: in vivo, mice; conditions: P-CyPt 100 μM, 200 μL i.v., 4 h
Description: page 21: Supplementary Figure 29. Fluorescence imaging of varying sizes of s.c. HeLa tumors in mice. (a) Representative fluorescence images of mice with s.c. HeLa tumors at a mean size of 3.8 ± 0.8, 22.1 ± 1.6, 46.4 ± 4.2, 75.9 ± 4.5 and 125.5 ± 12.7 mm3, respectively. […]) was i.v. injected into mice, and the whole-body fluorescence images were acquired at 0 and 4 h. Red arrows indicate the locations of tumors, and the black circle indicates the position chosen for the background in each mouse. (b) Calculated SBR in mice of different tumor sizes. […] Data denote mean ± s.d. (n = 3 independent animals). […] 21 (1 picture or pasted object on this page, not shown here)

ALP [2] = molecular target: T1, ALP; test: NIR FL, PA and absorption signals of P-CyPt in solution in response to ALP; format: biochemical; conditions: P-CyPt 10 μM; for normalized Abs. at 700 nm (Fig. 2j) / normalized Abs. at 750 nm (Fig. 2j) / normalized FL intensity at 710 nm (Fig. 2k) / normalized PA intensity at 700 nm (Fig. 2l) / normalized PA intensity at 750 nm (Fig. 2l): ALP 100 U/L 37 °C
Description: To monitor the NIR FL and PA imaging signals of P-CyPt in response to ALP, P-CyPt (10 μM) in Tris buffer (1 mL) was incubated with ALP (100 U/L) at 37 °C for 0, 5, 10, 15, 20, and 30 min. To monitor the NIR FL and PA imaging signals of Pt^IVNPs in response to GSH, P-CyPt (10 μM) in Tris buffer (1 mL) was first incubated with ALP (100 U/L) at 37 °C for 30 min and then incubated with 10 mM GSH at 37 °C for another 10, 20, 30, 40, 50, and 60 min. The NIR FL spectra of these solutions at each time point were acquired on a HORIBA Jobin Yvon Fluoromax-4 fluorescence spectrometer, with excitation at 680 nm. For PA imaging, the incubation solutions at each time point were loaded into a fine bore polythene tube ([…], 1.27 mm OD). The tubes were then sealed and immersed in water. The PA images at both 700 and 750 nm were acquired on the Vevo 2100 LAZR system (FUJIFILM VisualSonics).

T1 sequence (P19111 20-506 limits assumed): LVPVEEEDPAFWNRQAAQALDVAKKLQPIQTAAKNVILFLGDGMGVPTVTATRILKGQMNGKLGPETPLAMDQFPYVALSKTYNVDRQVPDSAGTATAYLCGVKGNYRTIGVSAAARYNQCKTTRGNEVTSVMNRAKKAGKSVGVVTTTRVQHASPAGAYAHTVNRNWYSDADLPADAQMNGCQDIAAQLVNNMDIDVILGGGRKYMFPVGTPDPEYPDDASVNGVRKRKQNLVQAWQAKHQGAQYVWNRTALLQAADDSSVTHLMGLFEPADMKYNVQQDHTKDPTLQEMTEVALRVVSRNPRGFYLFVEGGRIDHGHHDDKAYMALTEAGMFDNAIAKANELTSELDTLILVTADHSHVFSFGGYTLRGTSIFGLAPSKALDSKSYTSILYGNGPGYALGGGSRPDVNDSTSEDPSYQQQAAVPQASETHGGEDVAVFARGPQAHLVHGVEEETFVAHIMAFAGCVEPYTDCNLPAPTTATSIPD

CC1(C)C(/C=C/C2=C3Oc4cc(OP(=O)(O)O)c(Cl)cc4C=C3CCC2)=[N+](CCCNC(=O)[C@@H](Cc2ccccc2)NC(=O)[C@@H](Cc2ccccc2)NC(=O)CCC(=O)[O][Pt]([NH2])([NH2])([OH])([Cl])[Cl])c2ccccc21 [P-CyPt]
Normalized FL intensity at 710 nm (individual replicates) (ALP [1]; ALP concentration 0 U/L): 0.8554 and 0.8726 and 0.8742
Normalized FL intensity at 710 nm, mean (ALP [1]; ALP concentration 0 U/L): 0.867
Normalized FL intensity at 710 nm (individual replicates) (ALP [1]; ALP concentration 0.5 U/L): 0.9653 and 1.0053 and 1.0982
Normalized FL intensity at 710 nm, mean (ALP [1]; ALP concentration 0.5 U/L): 1.023
Normalized FL intensity at 710 nm (individual replicates) (ALP [1]; ALP concentration 1 U/L): 1.1743 and 1.1873 and 1.137
Normalized FL intensity at 710 nm, mean (ALP [1]; ALP concentration 1 U/L): 1.166
Normalized FL intensity at 710 nm (individual replicates) (ALP [1]; ALP concentration 2 U/L): 1.4406 and 1.5171 and 1.5718
Normalized FL intensity at 710 nm, mean (ALP [1]; ALP concentration 2 U/L): 1.510
Normalized FL intensity at 710 nm (individual replicates) (ALP [1]; ALP concentration 5 U/L): 2.2381 and 2.3195 and 2.3579
Normalized FL intensity at 710 nm, mean (ALP [1]; ALP concentration 5 U/L): 2.305
Normalized FL intensity at 710 nm (individual replicates) (ALP [1]; ALP concentration 10 U/L): 3.458 and 3.6281 and 3.6545
Normalized FL intensity at 710 nm, mean (ALP [1]; ALP concentration 10 U/L): 3.580
Normalized FL intensity at 710 nm (individual replicates) (ALP [1]; ALP concentration 15 U/L): 4.5389 and 4.8786 and 4.9735
Normalized FL intensity at 710 nm, mean (ALP [1]; ALP concentration 15 U/L): 4.797
Normalized FL intensity at 710 nm (individual replicates) (ALP [1]; ALP concentration 20 U/L): 5.7617 and 5.8661 and 6.3529
Normalized FL intensity at 710 nm, mean (ALP [1]; ALP concentration 20 U/L): 5.994
detection limit for ALP (ALP [1]; P-CyPt 10 μM, 30 min, 3σ/k method): ~ 0.098 U/L
size of s.c. HeLa tumors still detected by NIR FL imaging (s.c. HeLa tumors): 3.8 ± 0.8 mm^3
normalized Abs. at 700 nm (Fig. 2j) (ALP [2]; 0 min): 0.03754
normalized Abs. at 750 nm (Fig. 2j) (ALP [2]; 0 min): 0.01756
normalized FL intensity at 710 nm (Fig. 2k) (ALP [2]; 0 min): 0.979
normalized PA intensity at 700 nm (Fig. 2l) (ALP [2]; 0 min): 0.1461
normalized PA intensity at 750 nm (Fig. 2l) (ALP [2]; 0 min): 0.1527
normalized Abs. at 700 nm (Fig. 2j) (ALP [2]; 5 min): 0.6947
normalized Abs. at 750 nm (Fig. 2j) (ALP [2]; 5 min): 0.2821
normalized FL intensity at 710 nm (Fig. 2k) (ALP [2]; 5 min): 5.873
normalized PA intensity at 700 nm (Fig. 2l) (ALP [2]; 5 min): 0.4821
normalized PA intensity at 750 nm (Fig. 2l) (ALP [2]; 5 min): 0.3333
normalized Abs. at 700 nm (Fig. 2j) (ALP [2]; 10 min): 0.8107
normalized Abs. at 750 nm (Fig. 2j) (ALP [2]; 10 min): 0.4361
normalized FL intensity at 710 nm (Fig. 2k) (ALP [2]; 10 min): 6.541
normalized PA intensity at 700 nm (Fig. 2l) (ALP [2]; 10 min): 0.5922
normalized PA intensity at 750 nm (Fig. 2l) (ALP [2]; 10 min): 0.5187
normalized Abs. at 700 nm (Fig. 2j) (ALP [2]; 15 min): 0.8996
normalized Abs. at 750 nm (Fig. 2j) (ALP [2]; 15 min): 0.6102
normalized FL intensity at 710 nm (Fig. 2k) (ALP [2]; 15 min): 6.902
normalized PA intensity at 700 nm (Fig. 2l) (ALP [2]; 15 min): 0.7009
normalized PA intensity at 750 nm (Fig. 2l) (ALP [2]; 15 min): 0.788
normalized Abs. at 700 nm (Fig. 2j) (ALP [2]; 20 min): 0.9422
normalized Abs. at 750 nm (Fig. 2j) (ALP [2]; 20 min): 0.6514
normalized FL intensity at 710 nm (Fig. 2k) (ALP [2]; 20 min): 7.672
normalized PA intensity at 700 nm (Fig. 2l) (ALP [2]; 20 min): 0.8542
normalized PA intensity at 750 nm (Fig. 2l) (ALP [2]; 20 min): 0.9373
normalized Abs. at 700 nm (Fig. 2j) (ALP [2]; 30 min): 0.996
normalized Abs. at 750 nm (Fig. 2j) (ALP [2]; 30 min): 0.688
normalized FL intensity at 710 nm (Fig. 2k) (ALP [2]; 30 min): 7.9669
normalized PA intensity at 700 nm (Fig. 2l) (ALP [2]; 30 min): 0.9524
normalized PA intensity at 750 nm (Fig. 2l) (ALP [2]; 30 min): 1.0015
NIR FL at 710 nm switched on (ALP [2]; ALP 100 U/L, after 30 min): ~ 8 fold
